Measured values reported in US20240166635A1, “AMINOHETEROARYL KINASE INHIBITORS” (Anrui Biomedical Technology (Guangzhou) Co.,Ltd., priority 2020, published 2024).
pIC50: −log10 of the molar value.

Legend:
Assay type in all cases: biochemical
CDK1/CyclinB = CDK1/CyclinB (Homo sapiens (Human), UniProt P06493); assay: CDK1/CyclinB kinase inhibitory activity (Caliper mobility shift); conditions: read-out: CDK1/Cyclin B1 IC50
CDK9/CyclinT1 = CDK9/CyclinT1 (Homo sapiens (Human), UniProt P50750); assay: CDK9/CyclinT1 kinase inhibitory activity (Caliper mobility shift); conditions: read-out: CDK9/Cyclin T1 IC50
Chain of CDK9/CyclinT1 (P50750 whole entry): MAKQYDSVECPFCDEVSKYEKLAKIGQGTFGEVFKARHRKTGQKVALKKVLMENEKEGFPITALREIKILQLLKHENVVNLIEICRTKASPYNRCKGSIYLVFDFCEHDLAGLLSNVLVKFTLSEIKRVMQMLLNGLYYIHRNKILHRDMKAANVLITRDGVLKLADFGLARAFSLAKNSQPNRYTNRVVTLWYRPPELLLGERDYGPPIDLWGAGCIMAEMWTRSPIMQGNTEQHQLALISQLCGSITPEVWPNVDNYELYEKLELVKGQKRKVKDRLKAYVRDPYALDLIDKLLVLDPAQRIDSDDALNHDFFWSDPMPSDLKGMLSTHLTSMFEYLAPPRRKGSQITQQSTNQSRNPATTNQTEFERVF
Chain of CDK9/CyclinT1 (O60563 whole entry partner): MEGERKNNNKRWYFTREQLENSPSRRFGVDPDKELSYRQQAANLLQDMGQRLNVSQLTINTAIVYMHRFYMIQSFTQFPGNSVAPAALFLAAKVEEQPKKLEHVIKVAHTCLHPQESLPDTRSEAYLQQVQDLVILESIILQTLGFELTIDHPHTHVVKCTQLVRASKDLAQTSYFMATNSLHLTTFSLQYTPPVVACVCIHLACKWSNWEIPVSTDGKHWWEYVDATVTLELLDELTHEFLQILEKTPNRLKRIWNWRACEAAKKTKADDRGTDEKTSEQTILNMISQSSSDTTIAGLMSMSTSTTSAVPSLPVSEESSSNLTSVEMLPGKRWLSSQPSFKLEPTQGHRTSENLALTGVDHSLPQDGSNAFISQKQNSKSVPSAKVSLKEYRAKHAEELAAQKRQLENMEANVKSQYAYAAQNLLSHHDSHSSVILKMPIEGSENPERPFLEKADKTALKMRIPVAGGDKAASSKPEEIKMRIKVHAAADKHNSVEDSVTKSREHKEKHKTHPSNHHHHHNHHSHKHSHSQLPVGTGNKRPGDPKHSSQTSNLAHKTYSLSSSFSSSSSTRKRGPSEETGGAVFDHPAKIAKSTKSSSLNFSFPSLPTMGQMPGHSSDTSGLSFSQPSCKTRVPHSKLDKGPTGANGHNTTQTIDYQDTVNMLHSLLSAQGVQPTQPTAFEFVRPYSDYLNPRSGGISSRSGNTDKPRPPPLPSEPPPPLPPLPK

CDK2/CyclinE1 = CDK2/CyclinE1 (Homo sapiens (Human), UniProt P24941); assay: CDK2/CyclinE1 kinase inhibitory activity (Caliper mobility shift); conditions: read-out: CDK2/Cyclin El IC50

Chain of CDK1/CyclinB (P06493 whole entry): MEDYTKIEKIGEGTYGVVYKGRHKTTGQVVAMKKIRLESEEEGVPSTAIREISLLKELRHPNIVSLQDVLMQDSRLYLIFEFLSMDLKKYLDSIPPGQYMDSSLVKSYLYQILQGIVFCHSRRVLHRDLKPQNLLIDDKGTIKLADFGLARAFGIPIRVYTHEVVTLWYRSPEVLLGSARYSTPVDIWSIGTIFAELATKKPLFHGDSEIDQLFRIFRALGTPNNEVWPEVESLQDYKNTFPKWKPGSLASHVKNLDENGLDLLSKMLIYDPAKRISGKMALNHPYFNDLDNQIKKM
Chain of CDK1/CyclinB (P14635 whole entry partner): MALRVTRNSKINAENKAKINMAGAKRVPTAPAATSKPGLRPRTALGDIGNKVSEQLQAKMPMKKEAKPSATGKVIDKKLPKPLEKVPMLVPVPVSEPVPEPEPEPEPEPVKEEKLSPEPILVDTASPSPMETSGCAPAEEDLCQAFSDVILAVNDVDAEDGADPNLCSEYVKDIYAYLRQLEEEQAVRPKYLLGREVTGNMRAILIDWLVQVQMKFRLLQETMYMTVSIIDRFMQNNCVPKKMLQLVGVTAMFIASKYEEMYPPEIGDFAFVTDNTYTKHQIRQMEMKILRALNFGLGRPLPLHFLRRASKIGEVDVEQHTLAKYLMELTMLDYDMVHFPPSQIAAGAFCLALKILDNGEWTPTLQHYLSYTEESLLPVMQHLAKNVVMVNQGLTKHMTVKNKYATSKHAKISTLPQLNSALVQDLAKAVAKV

Compound	pIC50 (CDK1/CyclinB)	pIC50 (CDK9/CyclinT1)	pIC50 (CDK2/CyclinE1)
NS(=O)(=O)c1ccc(Nc2ncc(C(F)(F)F)c(OC3COCCC3O)n2)cc1 (single isomer, unassigned) [Example 115b]	6.00 to 7.00	6.00 to 7.00	7.00 to 8.00
Cc1cnc(Nc2ccc(S(=O)(=O)NC(C)C)cc2)nc1OC1CCCC1O (single isomer, unassigned) [Example 147b]	6.00 to 7.00	6.00 to 7.00	7.00 to 8.00
CNS(=O)(=O)c1ccc(Nc2ncc(C(F)(F)F)c(OC3CCOCC3O)n2)cc1 (single isomer, unassigned) [Example 116b]	6.00 to 7.00	≤ 6.00	7.00 to 8.00
CC(C)NS(=O)(=O)c1ccc(Nc2ncc(C#N)c(OC3CCCCC3O)n2)cc1 (single isomer, unassigned) [Example 30a]	7.00 to 8.00	6.00 to 7.00	> 8.00
[2H]C([2H])([2H])NS(=O)(=O)c1ccc(Nc2ncc(CC)c(OC3CCOCC3O)n2)cc1 (single isomer, unassigned) [Example 151b]	≤ 6.00	≤ 6.00	7.00 to 8.00
N#Cc1cnc(Nc2ccc(S(N)(=O)=O)cc2)nc1OC1CCCC1CO (single isomer, unassigned) [Example 18b]	7.00 to 8.00	6.00 to 7.00	> 8.00
CC1(O)CCCC1Oc1nc(NC2CCN(S(=O)(=O)CF)CC2)ncc1C#N (single isomer, unassigned) [Example 37b]	6.00 to 7.00	≤ 6.00	7.00 to 8.00
CC(C)CS(=O)(=O)N1CCC(Nc2ncc(C#N)c(OC3CCCC3(C)O)n2)CC1 (single isomer, unassigned) [Example 39b]	6.00 to 7.00	≤ 6.00	7.00 to 8.00
CC1CCCC(O)C1Oc1nc(Nc2ccc(S(N)(=O)=O)cc2)ncc1C(F)(F)F (single isomer, unassigned) [Example 112b]	6.00 to 7.00	6.00 to 7.00	> 8.00
CC(C)NS(=O)(=O)c1ccc(Nc2ncc(C3CC3)c(O[C@@H]3CCC[C@@H]3O)n2)cc1 (single isomer, unassigned) [Example 134b, cis-4-((5-cyclopropyl-4-((2-hydroxycyclopentyl)oxy)pyrimidin-2-yl)amino)-N-isopropylbenzenesulfonamide]	6.00 to 7.00	6.00 to 7.00	7.00 to 8.00
N#Cc1cnc(Nc2ccc(S(N)(=O)=O)cc2)nc1N1CCC[C@H](CO)C1 [Example 78]	7.00 to 8.00	6.00 to 7.00	> 8.00

The next lines start with the values.

pIC50 (CDK1/CyclinB)	pIC50 (CDK9/CyclinT1)	pIC50 (CDK2/CyclinE1)	Compound
7.00 to 8.00	6.00 to 7.00	> 8.00	N#Cc1cnc(Nc2ccc(S(N)(=O)=O)cc2)nc1OC1CCCCCC1O (single isomer, unassigned) [Example 22b]
6.00 to 7.00	6.00 to 7.00	7.00 to 8.00	[2H]C([2H])([2H])NS(=O)(=O)c1ccc(Nc2ncc(C(F)(F)F)c(OC3CCCC3O)n2)cc1 (single isomer, unassigned) [Example 109b]
6.00 to 7.00	≤ 6.00	> 8.00	CNS(=O)(=O)c1ccc(Nc2ncc(C#N)c(OC3CCCC3(C)O)n2)cc1 (single isomer, unassigned) [Example 34b]
7.00 to 8.00	7.00 to 8.00	> 8.00	C[C@@H]1C[C@H](O)CCN1c1nc(Nc2ccc(S(N)(=O)=O)cc2)ncc1C#N [Example 75]
7.00 to 8.00	6.00 to 7.00	> 8.00	CNS(=O)(=O)c1ccc(Nc2ncc(Br)c(OC3CCCC3O)n2)cc1 (single isomer, unassigned) [Example 142b]
6.00 to 7.00	6.00 to 7.00	> 8.00	NS(=O)(=O)c1ccc(Nc2ncc(C(F)(F)F)c(OC3CCCCC3O)n2)cc1 (single isomer, unassigned) [Example 111a]
6.00 to 7.00	6.00 to 7.00	7.00 to 8.00	CC1(O)CCCC1Oc1nc(Nc2ccc(S(N)(=O)=O)cc2)ncc1C#N (single isomer, unassigned) [Example 23b]
